In general, Cmax refers to the maximum level reached in the sampled fluid or tissue. What is called IC50 is the concentration at which inhibition is half-maximal.

Data on 1 compound can be found in patent publication US7652015B2, “Kinase inhibitors” (Eli Lilly and Company, priority 2006, dated 2010).

SMILES strings stand for the structures.

The nature of data set [1]: Oral exposure in male Fischer 344 rats. It is filed as in vivo. Particulars: rat, 1 mg/kg, fasted, gavage, suspension 1 mg/mL at 1 mL/kg, plasma. The procedure:
Compounds are screened for oral exposure in male Fischer 344 rats. Animals are fasted overnight and administered test compounds prepared as suspensions in sodium carboxymethylcellulose (1% w/v) containing Tween 80 (0.25% v/v) and antifoam (0.1% w/v). Dose suspensions are prepared at 1 mg/mL and administered at 1 mL/kg by gavage. Blood samples are taken between 0.5 h and 7 h after dose administration and plasma are prepared by centrifugation. Plasma samples are analyzed using online solid phase extraction and LC/MS/MS.

In a further data set the test system is TNFα. Put plainly: Effect on intra-articular LPS induced TNFα in rat ankle synovial lavage fluid. To be noted: female Lewis rats, orally, intra-articular LPS 10 μg one hour later, lavage after two hours. The format is in vivo. The procedure:
Intra-articular injection of LPS into rat ankles induces the synthesis of TNFα, which can be measured in synovial lavage fluid. High levels of TNFα are detectable within 2 hours. Since the joint is the site where arthritis develops, this model can rapidly determine whether an orally administered compound has an effect on an inflammatory response in the synovium.
Six female Lewis rats (150-200 g) are place in each treatment group. The animals are given vehicle (1% NaCarboxymethylcellulose-0.25% Tween 80) or test compound
(1 mg/kg, 3 mg/kg, 10 mg/kg, and 30 mg/kg) orally. One hour later, 10 μl LPS (10 μg) is administered intra-articularly into the right ankle of each rat, while the left ankle receives 10 μL of saline. After two hours, each ankle is lavaged with 100 μL of saline. The lavage is collected and stored at −80° C. • Group #1: Vehicle (1% NaCMC-0.25% Tween 80, 1 mL, PO) • Group #2: Test compound (1 mg/kg, 1 mL, PO) • Group #3: Test compound (3 mg/kg, 1 mL, PO) • Group #4: Test compound (10 mg/kg, 1 mL, PO) • Group #5: Test compound (30 mg/kg, 1 mL, PO)
TNFα is measured with a commercially available ELISA kit (R&D, RTA00).

The subject of the next data set is p-MAPKAPK2. Nature of the data set: Inhibition of p-MAPKAPK2 in vitro, anisomycin-stimulated RAW 264.7 cells, ELISA. It is filed as cell-based, murine. Particulars: Mus musculus, RAW264.7, read-out: IC50, inhibition of p-MAPKAPK2 in vitro. How it is done:
RAW 264.7 cells (a murine monocytic/macrophage line ATCC) are seeded at a density of 50,000 cells/well in 96-well plates with RPMI-1640 medium plus 10% fetal bovine serum (FBS) and allowed to settle and adhere to the bottom of the well for 48 hours. After reaching confluence, cells are treated for 2 hours with 10 serial dilutions of different compounds. A control compound is always included. After 2 hours, anisomicin (100 ug/ml) is added and cells are incubated for 30 minutes at 37° C. under a 5% CO2 atmosphere. Then, cells are fixed and treated with hydrogen peroxide in order to remove endogenous peroxidase. Finally, plates are blocked with FBS, washed, and an ELISA assay is carried out by using an antiphospho-MAPKAPK (Thr 334, Cell Signalling, Cat # 3041) antibody and ahP-Conjugated Secondary Antibody. This reaction is detected by using FEMTO (Pierce) which is an enhanced chemiluminiscent substrate ahP that results in rapid kinetic light output and high signal intensity.
A general note: An ELISA detects its analyte on a solid surface through an enzyme-linked reagent.

As for `CS(=O)(=O)O.Cc1ccc(-n2nc(C(C)(C)C)cc2NC(=O)Nc2ccc(N3CCN(C(=O)c4c(F)cccc4F)CC3)nc2C)cc1` [Example 5, 1-(5-tert-Butyl-2-p-tolyl-2H-pyrazol-3-yl)-3-{6-[4-(2,6-difluoro-benzoyl)-piperazin-1-yl]-2-methyl-pyridin-3-yl}-urea methanesulfonate], the Cmax in data set [1] stood at 9390 ng/mL. The AUC(0-t) in data set [1] (read-out: AUC(0-7h)) turned out to be 36800 ng·h/mL. Also, the “TMED50, inhibition of TNFα synthesis in synovial lavage fluid” value in the data set on TNFα turned out to be 3.57 mg/kg. Besides, the half-inhibitory concentration (IC50) with p-MAPKAPK2 was 4.5 nM.
